Reference: US20150374709A1, “TETRA-SUBSTITUTED NDGA DERIVATIVES VIA ETHER BONDS AND CARBAMATE BONDS AND THEIR SYNTHESIS AND PHARMACEUTICAL USE” (ERIMOS PHARMACEUTICALS LLC, priority 2006, published 2015)

System: TAT-mediated transactivation of HIV transcription (HIV-1 LTR promoter)
Assay: SEAP assay of TAT-mediated transactivation (antiviral activity)
Format: cell-based, human immunodeficiency virus (HIV)
Conditions: Human immunodeficiency virus 1, COS-7, 48 h, read-out: SEAP EC50
Procedure: Antiviral activity is determined using a SEAP (SEcreted Alkaline Phosphatase) assay, in which cells are co-transfected with SEAP and TAT plasmids. TAT is a transactivator, human immunodeficiency virus (HIV) gene expression and is one of the two or more necessary viral regulatory factors (TAT and REV) for HIV gene expression. TAT acts iv binding to the TAR RNA element and activating transcription from the long terminal repeat (LTR) promoter. […] Previous studies have shown that TAT mediates reduction of antibody-dependent T cell proliferation, contributing substantially to the failure of the immune response. TAT also directly stimulates Kaposi's cell growth.
Since TAT has no apparent cellular homologs, this strong positive regulator has become an attractive target for the development of anti-AIDS drugs. In contrast to currently available HIV reverse transcriptase inhibitors (AZT, DDI) or potential protease inhibitors that prevent new rounds of infection, an inhibitor which suppresses viral gene TAT regulated expression of integrated proviral DNA will arrest the virus at an early stage (Hsu et al., Science 254:1799-1802, 1991). Efforts aimed at the elucidation of factors which control gene expression at transcriptional and post-transcriptional levels in host eukaryotes have recently made possible quantitative assessment of TAT function (Sim, Ann. N.Y. Acad. Sci. 616: 64-70, 1990). To screen for inhibitors for TAT regulated transactivation (TAT-TRS), the SEAP reporter gene is put under the control of HIV-1 LTR promoter in the plasmid pBC12/HIV/SEAP. The TAT-coded activity is supplied by a second plasmid construct pBC12/CMV/t2. Transient co-transfection of COS-7 cells with these two plasmids leads to secretion of alkaline phosphatase into the culture medium which is analyzed by a simple colorimetric assay (Berger et al., Gene 66: 1-10, 1988). […]
In the SEAP assay, an inhibitor should cause reduction of SEAP reporter gene expression via transactivation of the HIV-1 LTR promoter by TAT protein (TAT-TRS). […] SEAP is detected colorimetrically by the para-nitrophenyl phosphate substrate at 405 nm. […] The cells are analyzed by the MTT assay to compare cytotoxicity to SEAP inhibition. […]
COS-7 (green monkey kidney) cells were co-transfected using Fugene 6 reagent (Roche Applied Science, Cat. No. 11815091001, Indianapolis, Ind., USA) with two plasmids: pHIVSEAP (SEAP expression vector under the control of the HIV LTR promoter) and pCTAT (HIV TAT transcription factor expression vector under the control of a CMV (cytomegalovirus) promoter). After test compound treatment for 48 hours, samples were analyzed for […] at 405 nm after addition of the p-nitrophenyl phosphate substrate. The percentage of SEAP activity inhibition was calculated in relation to the placebo control.

Question: Which EC50 does the source give for `C[C@H](Cc1ccc(OCCCN2CCCCC2)c(OCCCN2CCCCC2)c1)[C@@H](C)Cc1ccc(OCCCN2CCCCC2)c(OCCCN2CCCCC2)c1` [Compound A, 1,4-bis{3,4-bis[3-(piperidin-1-yl)propoxy]phenyl}-2,3-dimethyl-(2R,3S)-butane] here?
Answer: Its EC50 is 500 to 1000 nM.
